Reference: US6861428B2, “Water-soluble phenylpyridazine compounds and compositions containing the same” (Kowa Co., Ltd., priority 2001, dated 2005)
pIC50: −log10 of the molar value. Like-named read-outs stand apart in the source and are kept apart here.

What was measured:
[1] = test system: interleukin-1β production; assay: Inhibitory activity against interleukin-1β production (LPS-stimulated HL-60 cells, ELISA); assay type: cell-based; details: Homo sapiens, 72 h, lipopolysaccharide 10 μg/mL, 3 days
Experimental: Inhibitory Activity Against Interleukin-1β Production
HL-60 cells were cultured for 4 days until confluence on RPMI 1640 medium with 10% fetal bovine serum (FBS) added thereto. The medium was centrifuged. The supernatant was discarded, and the cells were then suspended at 1×10^6 cells/mL on RPMI 1640 medium with 3% FBS, and lipopolysaccharide was added to give a final concentration of 10 μg/mL. The culture was inoculated at 1 mL/well to a 24-well plate. A sample compound was added at 1 μL/well, followed by culturing for 3 days. Three days later, the amount of interleukin-1β in each culture was determined by ELISA. Each IC50 value was determined by a comparison in yield with a control to which no test sample was added.

[2] = Water solubility test; assay type: physicochemical; details: for Solubility (%): purified water, from amount of water required for dissolution; for Dissolution in amount of added water: 100 mL purified water added
Experimental: Each sample compound was weighed in the amount shown in Table 3, to which purified water was added in 0.05 mL aliquots. The solubility (%) of the compound was determined based on the amount of water required for its dissolution.

[3] = Table 1, read-out: IL-1β production inhibiting activity IC50
[4] = Table 2, read-out: IL-1β production inhibiting activity IC50

| SMILES | melting point | Solubility (%) [2] | pIC50 [1, 4] | other results |
| --- | --- | --- | --- | --- |
| COc1ccc(-c2cc(CN3CCN(Cc4ccccc4)CC3)c(=O)n(CC3CC3)n2)cc1F.Cl.Cl [Example 18, 4-(4-benzyl-1-piperazinyl)methyl-2-cyclopropylmethyl-6-(3-fluoro-4-methoxyphenyl)-2H-pyridazin-3-one dihydrochloride] |  | 1% |  | pIC50 [1, 3]: 5.27 |
| COc1ccc(-c2cc(CN3CCNCC3)c(=O)n(CC3CC3)n2)cc1F.Cl.Cl [Example 21, 2-cyclopropylmethyl-6-(3-fluoro-4-methoxyphenyl)-4-(1-piperazinyl)methyl-2H-pyridazin-3-one dihydrochloride] |  | >20% |  | pIC50 [1, 3]: 6.00 |
| COc1ccc(-c2cc(CN3CCN(C)CC3)c(=O)n(Cc3ccc(F)cc3)n2)cc1F [Example 189, 2-(4-fluorobenzyl)-6-(3-fluoro-4-methoxyphenyl)-4-(4-methyl-1-piperazinyl)methyl-2H-pyridazin-3-one] | 112 to 113 °C |  |  | pIC50 [1, 3]: 6.06 |
| COc1ccc(-c2cc(CN3CCNCC3)c(=O)n(Cc3ccc(F)cc3)n2)cc1F [Example 192, 2-(4-fluorobenzyl)-6-(3-fluoro-4-methoxyphenyl)-4-(1-piperazinyl)methyl-2H-pyridazin-3-one] | 142 to 143 °C |  |  | pIC50 [1, 3]: 6.19 |
| COc1ccc(-c2cc(CN3CCN(C)CC3)c(=O)n(Cc3ccc(F)c(F)c3)n2)cc1F [Example 207, 2-(3,4-difluorobenzyl)-6-(3-fluoro-4-methoxyphenyl)-4-(4-methyl-1-piperazinyl)methyl-2H-pyridazin-3-one] | 135.4 to 136 °C |  | 5.57 |  |
| COc1ccc(-c2cc(CN3CCN(C)CC3)c(=O)n(CC=Cc3ccc(Cl)cc3)n2)cc1F [Example 209, 2-(4-chlorocinnamyl)-6-(3-fluoro-4-methoxyphenyl)-4-(4-methyl-1-piperazinyl)methyl-2H-pyridazin-3-one] | 123.9 to 125.5 °C |  | 5.55 |  |
| COc1ccc(-c2cc(CCCN3CCNCC3)c(=O)n(CC3CC3)n2)cc1F.Cl.Cl [Example 214, 2-cyclopropylmethyl-6-(3-fluoro-4-methoxyphenyl)-4-[3-(1-piperazinyl)propyl]-2H-pyridazin-3-one dihydrochloride] |  | 10% |  |  |
| Cc1cc(-c2cc(CN3CCN(C)CC3)c(=O)n(CCCc3ccc(Cl)cc3)n2)ccc1F [Example 218, 2-[3-(4-chlorophenyl)propyl]-6-(4-fluoro-3-methylphenyl)-4-(4-methyl-1-piperazinyl)methyl-2H-pyridazin-3-one] |  |  | 5.17 |  |
| Cc1cc(-c2cc(CN3CCN(C)CC3)c(=O)n(Cc3ccc(Cl)cc3)n2)ccc1F [Example 222, 2-(4-chlorobenzyl)-6-(4-fluoro-3-methylphenyl)-4-(4-methyl-1-piperazinyl)methyl-2H-pyridazin-3-one] | 133.3 to 133.8 °C |  | 5.24 |  |
| Cc1cc(-c2cc(CCCN)c(=O)n(Cc3ccccc3Cl)n2)ccc1F [Example 227, 4-(3-aminopropyl)-2-(2-chlorobenzyl)-6-(4-fluoro-3-methylphenyl)-2H-pyridazin-3-one] | 80 to 85 °C |  | 5.28 |  |
| Cc1cc(-c2cc(CN3CCN(C)CC3)c(=O)n(CCc3ccc(Cl)cc3)n2)ccc1F [Example 230, 2-[2-(4-chlorophenyl)ethyl]-6-(4-fluoro-3-methylphenyl)-4-(4-methyl-1-piperazinyl)methyl-2H-pyridazin-3-one] |  |  | 5.40 |  |
| Cc1cc(-c2cc(CN3CCN(C)CC3)c(=O)n(Cc3c(Cl)cccc3Cl)n2)ccc1F [Example 231, 2-(2,6-dichlorobenzyl)-6-(4-fluoro-3-methylphenyl)-4-(4-methyl-1-piperazinyl)methyl-2H-pyridazin-3-one] |  |  | 5.24 |  |
| COc1ccc(-c2cc(CN3CCN(C)CC3)c(=O)n(CCCc3ccccc3Cl)n2)cc1F [Example 241, 2-[3-(2-chlorophenyl)propyl]-6-(3-fluoro-4-methoxyphenyl)-4-(4-methyl-1-piperazinyl)methyl-2H-pyridazin-3-one] |  |  | 5.19 |  |
| COc1ccc(-c2cc(CN3CCN(C)CC3)c(=O)n(CCCc3ccc(Cl)cc3)n2)cc1F [Example 242, 2-[3-(4-chlorophenyl)propyl]-6-(3-fluoro-4-methoxyphenyl)-4-(4-methyl-1-piperazinyl)methyl-2H-pyridazin-3-one] |  |  | 5.11 |  |
| CCOC(=O)Nc1cc(-c2ccc(OC)cc2)nn(C/C=C/c2ccc(Cl)cc2)c1=O [compound 1, reference compound] |  | <0.001% |  | Dissolution in amount of added water [2]: (insoluble) |
| COc1ccc(-c2cc(C(=O)O)c(=O)n(C/C=C/c3ccc(Cl)cc3)n2)cc1 [compound 4, reference compound] |  | <0.001% |  | Dissolution in amount of added water [2]: (insoluble) |

Further lines, with some results ahead:

| melting point | Solubility (%) [2] | pIC50 [1, 4] | SMILES | other results |
| --- | --- | --- | --- | --- |
| 246.5 to 248.5 °C |  |  | Cc1ccc(-c2cc(CN(C)C)c(=O)n(CC(C)C)n2)cc1F.Cl [Example 8, 4-dimethylaminomethyl-6-(3-fluoro-4-methylphenyl)-2-isobutyl-2H-pyridazin-3-one hydrochloride] | pIC50 [1, 3]: 5.46 |
| 216.8 to 218.4 °C |  |  | CSc1ccc(-c2cc(CN(C)C)c(=O)n(CC(C)C)n2)cc1.Cl [Example 161, 4-dimethylaminomethyl-2-isobutyl-6-[4-(methylthio)phenyl]-2H-pyridazin-3-one hydrochloride] | pIC50 [1, 3]: 5.56 |
| 197.5 to 198.4 °C |  |  | C#CCNCc1cc(-c2ccc(SC)cc2)nn(CC(C)C)c1=O.Cl [Example 163, 2-isobutyl-6-[4-(methylthio)phenyl]-4-propargylaminomethyl-2H-pyridazin-3-one hydrochloride] | pIC50 [1, 3]: 5.56 |
|  | 0.08% |  | COc1ccc(-c2cc(CN)c(=O)n(CC3CCCC3)n2)cc1F.Cl [Example 188, 4-aminomethyl-2-cyclopentylmethyl-6-(3-fluoro-4-methoxyphenyl)-2H-pyridazin-3-one hydrochloride] |  |
|  | 0.2% |  | COc1ccc(-c2cc(CN)c(=O)n(Cc3ccc(F)cc3)n2)cc1F.Cl [Example 195, 4-aminomethyl-2-(4-fluorobenzyl)-6-(3-fluoro-4-methoxyphenyl)-2H-pyridazin-3-one hydrochloride] |  |
|  | 0.06% |  | COc1ccc(-c2cc(CN)c(=O)n(Cc3ccc(Cl)cc3)n2)cc1F.Cl [Example 206, 4-aminomethyl-2-(4-chlorobenzyl)-6-(3-fluoro-4-methoxyphenyl)-2H-pyridazin-3-one hydrochloride] |  |
| 129.9 to 130.4 °C |  | 5.21 | COc1ccc(-c2cc(CN(C)C)c(=O)n(Cc3ccc(F)c(F)c3)n2)cc1F [Example 208, 2-(3,4-difluorobenzyl)-4-dimethylaminomethyl-6-(3-fluoro-4-methoxyphenyl)-2H-pyridazin-3-one] |  |
|  | 10% |  | COc1ccc(-c2cc(CCCN)c(=O)n(CC3CC3)n2)cc1F.Cl [Example 217, 4-(3-aminopropyl)-2-cyclopropylmethyl-6-(3-fluoro-4-methoxyphenyl)-2H-pyridazin-3-one hydrochloride] |  |
|  | <0.001% |  | CNC(=O)c1cc(-c2ccc(OC)cc2)nn(CC(C)C)c1=O [compound 2, reference compound] | Dissolution in amount of added water [2]: (insoluble) |
